Where two headings read alike, the source gives them in different places.
Assays:
Type in all cases: cell-based
[1] = tested on: HTT; assay: RT-qPCR canonical junction panel assay, HTT; details: gene panel, read-out: HTT IC50 (decrease in CJ mRNA levels)
Experimental: (§1) Example 44: Exemplary splicing assay for monitoring expression levels of splice variants Compounds described herein were used to modulate RNA transcript abundance in cells. The expression of a target mRNA was measured by detecting the formation of an exon-exon junction in the canonical transcript (CJ). A compound mediated exon-inclusion event was detected by observing an increase in formation of a new junction with an alternative exon (AJ). Real-time qPCR assays were used to detect these splicing switches and interrogate the potency of various compounds towards different target genes. A high-throughput real time quantitative PCR (RT-qPCR) assay was developed to measure these two isoforms of the mRNA (CJ and AJ) for an exemplary gene, HTT, together with a control housekeeping gene, GAPDH or GUSB or PPIA, used for normalization. Briefly, the A673 or K562 cell line was treated with various compounds described herein (e.g., compounds of Formula (I)). After treatment, the levels of the HTT mRNA targets were determined from each sample of cell lysate by cDNA synthesis followed by qPCR.
(§2) The A673 cell line was cultured in DMEM with 10% FBS. Cells were diluted with full growth media and plated in a 96-well plate (15,000 cells in 100 µl media per well). The plate was incubated at 37° C. with 5% CO2 for 24 hours to allow cells to adhere. An 11-point 3-fold serial dilution of the compounds was made in DMSO then diluted in media in an intermediate plate. Compounds were transferred from the intermediate plate to the cell plate with the top dose at a final concentration of 10 uM in the well. Final DMSO concentration was kept at or below 0.25%. The cell plate was returned to the incubator at 37° C. with 5% CO2 for an additional 24 hours.
(§3) The K562 cell line was cultured in IMDM with 10% FBS. For K562, cells were diluted with full growth media and plated in either a 96-well plate (50,000 cells in 50 uL media per well) or a 384-well plate (8,000-40,000 cells in 45 uL media per well). An 11-point 3-fold serial dilution of the compounds were made in DMSO then diluted in media in an intermediate plate. Compound was transferred from the intermediate plate to the cell plate with the top dose at a final concentration of 10 uM in the well. Final DMSO concentration was kept at or below 0.25%. Final volume was 100 uL for 96-well plate and 50 uL for 384-well plate. The cell plate was then placed in an incubator at 37° C. with 5% CO2 for 24 hours.
(§4) The cells were then gently washed with 50 uL-100 uL cold PBS before proceeding to addition of lysis buffer. 30 uL-50 uL of room temperature lysis buffer with DNAse I (and optionally RNAsin) was added to each well. Cells were shaken/mixed thoroughly at room temperature for 5-10 minutes for lysis to take place and then 3 uL-5 uL of room temperature stop solution was added and wells were shaken/mixed again. After 2-5 minutes, the cell lysate plate was transferred to ice for RT-qPCR reaction setup. The lysates could also be frozen at ˜80° C. for later use.
(§5) In some cases, a direct lysis buffer was used. An appropriate volume of 3× lysis buffer (10 mM Tris, 150 mM NaCl, 1.5%-2.5% Igepal and 0.1-1 U/uL RNAsin, pH 7.4) was directly added to either K562 or A673 cells in media and mixed by pipetting 3 times. The plates were then incubated at room temperature with shaking/rocking for 20-50 minutes to allow for lysis to take place. After this time, the cell lysate plate was transferred to ice to set up for the RT-qPCR reactions. The lysates could also be frozen at −80° C. for later use.
(§6) To set up 10 uL RT-qPCR reactions, cell lysates were transferred to 384-well qPCR plates containing the master mix according to the table below. The plates were sealed, gently vortexed, and spun down before the run. The volumes were adjusted accordingly in some instances where the reaction was carried in 20 uL. The table below summarizes the components of the RT-qPCR reactions: […]

[2] = tested on: HTT; assay: RT-qPCR splicing assay for HTT mRNA isoforms (canonical junction CJ and alternative junction AJ); details: A673 or K562 cell line, 24 hours treatment
Experimental: as §1, §2, §3, §4, §5, §6

[3] = tested on: Target C; assay: RT-qPCR canonical junction panel assay, Target C; details: gene panel, read-out: Target C IC50 (decrease in CJ mRNA levels)
Experimental: as §1, §2, §3, §4, §5, §6

[4] = tested on: SMN2; assay: RT-qPCR canonical junction panel assay, SMN2; details: gene panel, read-out: SMN2 IC50 (decrease in CJ mRNA levels)
Experimental: as §1, §2, §3, §4, §5, §6

[5] = decrease in CJ mRNA levels, read-out: HTT CJ AC50
[6] = increase in AJ mRNA, read-out: HTT AJ AC50

SMILES	IC50 [1] [µM]	AC50 [2, 5] [µM]	AC50 [2, 6] [µM]	IC50 [3] [µM]	IC50 [4] [µM]
Cc1cc(-c2cc(=O)n3cc(N4CCN(C)CC4)sc3n2)cc2cn(C)nc12 [Compound 109, 7-(2,7-dimethyl-2H-indazol-5-yl)-2-(4-methylpiperazin-1-yl)-5H-thiazolo[3,2-α]pyrimidin-5-one]	> 10	> 10	> 10	> 10	> 10
Cc1cc(-c2cc(=O)n3nc(N4CCN(C)CC4)sc3n2)cc2cn(C)nc12 [Compound 157]	> 10	> 10	> 10	> 10	> 10
Cc1cn2cc(-c3cc(=O)n4nc(N5CCN(C)CC5)sc4n3)cc(F)c2n1 [Compound 159, 7-(8-fluoro-2-methylimidazo[1,2-α]pyridin-6-yl)-2-(4-methylpiperazin-1-yl)-5H-[1,3,4]thiadiazolo[3,2-α]pyrimidin-5-one]	1 to 10	1 to 10	1 to 10	1 to 10	1 to 10
CN1CCN(c2nc3ncn(-c4ccc5nn(C)cc5c4)c(=O)c3s2)CC1 [Compound 182, 6-(2-methyl-2H-indazol-5-yl)-2-(4-methylpiperazin-1-yl)thiazolo[4,5-d]pyrimidin-7(6H)-one]	1 to 10	1 to 10	1 to 10		1 to 10
Cc1cc(-c2cn3c(=O)cc(N4CCN(C)CC4)nc3s2)cc2cn(C)nc12 [Compound 183, 2-(2,7-dimethyl-2H-indazol-5-yl)-7-(4-methylpiperazin-1-yl)-5H-thiazolo[3,2-α]pyrimidin-5-one]	> 10	> 10	> 10		1 to 10
Cc1cn2cc(-c3cn4c(=O)cc(N5CCN(C)CC5)nc4s3)cc(F)c2n1 [Compound 184]	> 10	> 10	> 10		1 to 10
Cc1cn2nc(-c3cc(=O)n4cc(N(C)C5CC(C)(C)NC(C)(C)C5)sc4n3)cc(C)c2n1 [Compound 205, 7-(2,8-dimethylimidazo[1,2-b]pyridazin-6-yl)-2-(methyl(2,2,6,6-tetramethylpiperidin-4-yl)amino)-5H-thiazolo[3,2-α]pyrimidin-5-one]	1 to 10	1 to 10	1 to 10	1 to 10	1 to 10
Cc1cc(-c2nn3c(=O)cc(N4CCNCC4)nc3s2)cc2cn(C)nc12 [Compound 206, 2-(2,7-dimethyl-2H-indazol-5-yl)-7-(piperazin-1-yl)-5H-[1,3,4]thiadiazolo[3,2-α]pyrimidin-5-one]	1 to 10	1 to 10	1 to 10	1 to 10	0.1 to 1
Cc1cn2cc(-c3cc(=O)n4cc(N5CCNC6(CC6)C5)sc4n3)cc(F)c2n1 [Compound 207, 7-(8-fluoro-2-methylimidazo[1,2-α]pyridin-6-yl)-2-(4,7-diazaspiro[2.5]octan-7-yl)-5H-thiazolo[3,2-α]pyrimidin-5-one]	> 10	> 10	> 10	> 10	0.1 to 1
Cc1cn2cc(-c3cn4c(=O)cc(N5CCNC6(CC6)C5)nc4s3)cc(F)c2n1 [Compound 208, 2-(8-fluoro-2-methylimidazo[1,2-α]pyridin-6-yl)-7-(4,7-diazaspiro[2.5]octan-7-yl)-5H-thiazolo[3,2-α]pyrimidin-5-one]	1 to 10	1 to 10	1 to 10	1 to 10	1 to 10
Cc1cn2cc(-c3cc(=O)n4nc(N5CCNC6(CC6)C5)sc4n3)cc(F)c2n1 [Compound 209, 7-(8-fluoro-2-methylimidazo[1,2-α]pyridin-6-yl)-2-(4,7-diazaspiro[2.5]octan-7-yl)-5H-[1,3,4]thiadiazolo[3,2-α]pyrimidin-5-one]	1 to 10	1 to 10	1 to 10	1 to 10	1 to 10
Cc1cc(-c2nn3c(=O)cc(N4CCN(C)CC4)nc3s2)cc2cn(C)nc12 [Compound 210, 2-(2,7-dimethyl-2H-indazol-5-yl)-7-(4-methylpiperazin-1-yl)-5H-[1,3,4]thiadiazolo[3,2-α]pyrimidin-5-one]	1 to 10	1 to 10	1 to 10	1 to 10	1 to 10
Cc1cn2nc(-c3cc(=O)n4cc(N5CCNC6(CC6)C5)sc4n3)cc(C)c2n1 [Compound 211, 7-(2,8-dimethylimidazo[1,2-b]pyridazin-6-yl)-2-(4,7-diazaspiro[2.5]octan-7-yl)-5H-thiazolo[3,2-α]pyrimidin-5-one]	1 to 10	1 to 10	1 to 10	1 to 10	0.1 to 1
Cc1cn2nc(-c3cn4c(=O)cc(N5CCNC6(CC6)C5)nc4s3)cc(C)c2n1 [Compound 212, 2-(2,8-dimethylimidazo[1,2-b]pyridazin-6-yl)-7-(4,7-diazaspiro[2.5]octan-7-yl)-5H-thiazolo[3,2-α]pyrimidin-5-one]	1 to 10	1 to 10	1 to 10	1 to 10	1 to 10
Cc1cn2cc(-c3cn4c(=O)cc(N5CCNCC5)nc4s3)cc(F)c2n1 [Compound 213, 2-(8-fluoro-2-methylimidazo[1,2-α]pyridin-6-yl)-7-(piperazin-1-yl)-5H-thiazolo[3,2-α]pyrimidin-5-one]	> 10	> 10	> 10	> 10	1 to 10
Cc1cn2cc(-c3nn4c(=O)cc(N5CCNCC5)nc4s3)cc(F)c2n1 [Compound 214, 2-(8-fluoro-2-methylimidazo[1,2-α]pyridin-6-yl)-7-(piperazin-1-yl)-5H-[1,3,4]thiadiazolo[3,2-α]pyrimidin-5-one]	1 to 10	1 to 10	> 10	> 10	0.1 to 1
Cc1cn2cc(-c3nn4c(=O)cc(N(C)C5CC(C)(C)NC(C)(C)C5)nc4s3)cc(F)c2n1 [Compound 215, 2-(8-fluoro-2-methylimidazo[1,2-α]pyridin-6-yl)-7-(methyl(2,2,6,6-tetramethylpiperidin-4-yl)amino)-5H-[1,3,4]thiadiazolo[3,2-α]pyrimidin-5-one]	1 to 10	1 to 10	1 to 10	1 to 10	0.1 to 1
Cc1cn2cc(-c3nn4c(=O)cc(N5CCNC6(CC6)C5)nc4s3)cc(F)c2n1 [Compound 216, 2-(8-fluoro-2-methylimidazo[1,2-α]pyridin-6-yl)-7-(4,7-diazaspiro[2.5]octan-7-yl)-5H-[1,3,4]thiadiazolo[3,2-α]pyrimidin-5-one]	1 to 10	1 to 10	1 to 10	1 to 10	1 to 10
Cc1cn2cc(-c3nn4c(=O)cc(N5CCN(C)CC5)nc4s3)cc(F)c2n1 [Compound 217, 2-(8-fluoro-2-methylimidazo[1,2-α]pyridin-6-yl)-7-(4-methylpiperazin-1-yl)-5H-[1,3,4]thiadiazolo[3,2-α]pyrimidin-5-one]	1 to 10	1 to 10	1 to 10	1 to 10	1 to 10
